Converted amounts (≈) assume the structure as drawn. Read-outs that look alike come from different tables or passages of the source.
Assays:
LPS (E. coli O111:B4) = experiment: Peptide-LPS binding, BODIPY-TR-cadaverine displacement assay; conditions: 4 μM
Experimental: The binding abilities of the peptides with LPS was analyzed by BODIPY-TR cadaverine (BC, Thermo Fisher Scientific, Waltham, MA, USA)-displacement assay. The probe complex was prepared by mix 5 μg/mL BC with 5 μg/mL LPS (E. coli O111:B4, Sigma-Aldrich, St. Louis, MO, USA) in a 50 mM Tris buffer (pH 7.4) at room temperature for 6 h. Peptides including polymyxin B (PMB) control (1–64 μM) were allowed to interact with LPS–BC mix in a black 96-well plate for 30 min. The relative fluorescence intensity was recorded at an excitation wavelength of 580 nm and emission wavelength of 620 nm using a fluorescence microplate reader (Molecular Devices, San Jose, CA, USA).

LPS = experiment: Limulus amebocyte lysate (LAL) assay, LPS neutralization; type: biochemical; conditions: 1.6 μM
Experimental: Peptide-mediated LPS neutralization was determined using LAL assay (GenScript, Piscataway, NJ, USA). Briefly, peptides 10 μL each (3.1, 6.3, 12.5, 25, and 50 μM) were allowed to interact with LPS (2 ng/mL) for 10 min at 37 °C. LL-37 was used as a control. A LAL enzyme (10 μL) was added to peptide-LPS complex for 10 min followed by addition of a chromogenic substrate (5 min, 37 °C). The reaction was stopped using color substrates and the absorbance was measured at 545 nm against endotoxin standard. The endotoxin levels are expressed as endotoxin units (EU) per milliliter.

A. baumannii = experiment: MIC, broth dilution; type: cell-based, Acinetobacter baumannii KCCM 40203; conditions: 16 h, MH media, read-out: Minimal Inhibitory Concentration (MIC)
From the text: (§1) Escherichia coli KCTC 1682 was obtained from the Korean Collection for Type Cultures (KCTC) (Jeongeup-si, Korea), Acinetobacter baumannii KCCM 40203, Pseudomonas aeruginosa KCCM 11328 from the Korea Culture Center of Microorganisms (KCCM) (Seoul, Korea). Klebsiella pneumoniae NCCP 16054 were obtained from the National Culture Collection for Pathogens (NCCP) (Osong, Korea). Additionally, two carbapenem-resistant E. coli (CREC E1 and E2), 11 carbapenem-resistant A. baumannii (CRAB C0–C10) and two carbapenem-resistant K. pneumoniae (CRKP K1 and K2) were isolated from the patients, who presented symptoms and signs of infection at Korea University Anam Hospital (Seoul, Korea) (IRB registration no. 2020AN0157, 4 March 2021). CRAB C0–C10 have the OXA-23 gene with carbapenem-resistance.
(§2) The minimum inhibitory concentrations (MIC) were determined using broth dilution method. Briefly, all the mentioned bacterial strains were grown overnight at 37 °C by Muller–Hinton (MH) media. […] After 16 h incubation, the bacterial growth was read at 600 nm using a SpectraMAX microplate reader (Molecular Devices, San Jose, CA, USA).

CREC E1 = experiment: MIC, broth dilution; type: cell-based, carbapenem-resistant E. coli; conditions: read-out: Minimal Inhibitory Concentration (MIC)
From the text: as §1, §2

CREC E2 = experiment: MIC, broth dilution; type: cell-based, carbapenem-resistant E. coli; conditions: read-out: Minimal Inhibitory Concentration (MIC)
From the text: as §1, §2

CRAB C0 [1] = experiment: MIC, broth dilution; type: cell-based, carbapenem-resistant A. baumannii; conditions: read-out: Minimal Inhibitory Concentration (MIC)
From the text: as §1, §2

CRAB C10 = experiment: MIC, broth dilution; type: cell-based, carbapenem-resistant A. baumannii; conditions: read-out: Minimal Inhibitory Concentration (MIC)
From the text: as §1, §2

CRAB C2 = experiment: MIC, broth dilution; type: cell-based, carbapenem-resistant A. baumannii; conditions: read-out: Minimal Inhibitory Concentration (MIC)
From the text: as §1, §2

CRAB C3 = experiment: MIC, broth dilution; type: cell-based, carbapenem-resistant A. baumannii; conditions: read-out: Minimal Inhibitory Concentration (MIC)
From the text: as §1, §2

CRAB C4 = experiment: MIC, broth dilution; type: cell-based, carbapenem-resistant A. baumannii; conditions: read-out: Minimal Inhibitory Concentration (MIC)
From the text: as §1, §2

CRAB C5 = experiment: MIC, broth dilution; type: cell-based, carbapenem-resistant A. baumannii; conditions: read-out: Minimal Inhibitory Concentration (MIC)
From the text: as §1, §2

CRAB C6 = experiment: MIC, broth dilution; type: cell-based, carbapenem-resistant A. baumannii; conditions: read-out: Minimal Inhibitory Concentration (MIC)
From the text: as §1, §2

CRAB C7 = experiment: MIC, broth dilution; type: cell-based, carbapenem-resistant A. baumannii; conditions: read-out: Minimal Inhibitory Concentration (MIC)
From the text: as §1, §2

CRAB C9 = experiment: MIC, broth dilution; type: cell-based, carbapenem-resistant A. baumannii; conditions: read-out: Minimal Inhibitory Concentration (MIC)
From the text: as §1, §2

CRAB C1 = experiment: microbe, parasite or virus in culture; conditions: for MIC: Acinetobacter baumannii, read-out: Minimal Inhibitory Concentration (MIC)
From the text: as §1, §2

CRAB C8 = experiment: microbe, parasite or virus in culture; conditions: for MIC: Acinetobacter baumannii, read-out: Minimal Inhibitory Concentration (MIC)
From the text: as §1, §2

K. pneumoniae = experiment: microbe, parasite or virus in culture; conditions: 16 h; for MIC: Klebsiella pneumoniae, read-out: Minimal Inhibitory Concentration (MIC)
From the text: as §1, §2

CRKP K1 = experiment: MIC, broth dilution; type: cell-based, carbapenem-resistant K. pneumoniae; conditions: read-out: Minimal Inhibitory Concentration (MIC)
From the text: as §1, §2

CRKP K2 = experiment: MIC, broth dilution; type: cell-based, carbapenem-resistant K. pneumoniae; conditions: read-out: Minimal Inhibitory Concentration (MIC)
From the text: as §1, §2

intact CRAB C0 = experiment: Depolarization of intact CRAB C0 (diSC3-5); type: cell-based, carbapenem-resistant A. baumannii; conditions: 4 μM
Experimental: (§3) The depolarization capacity by peptides were measured by using a membrane potential sensitive dye 3,3′-dipropylthiadicarbocyanine iodide (diSC3-5) as previously described using intact CRAB C0. Briefly, CRAB C0 cells were washed using wash buffer (5 mM HEPES, 20 mM glucose, pH 7.4). The cells were resuspended in dilution buffer (5 mM HEPES, 20 mM glucose, 0.1 M KCl, pH 7.4) and then incubated with diSC3-5 dye (1 h). In parallel, spheroplasts of CRAB C0 cells (contains plasma membrane and peptidoglycans) were prepared by damaging outer membrane using osmotic shock, as described previously. Finally, varying concentrations of peptide treated cells, negative control (cells with dye) and positive control (1% triton X-100) were recorded for change in fluorescence using fluorescent spectrophotometer and expressed as percent depolarization.

CRAB C0 spheroplasts = experiment: Cytoplasmic membrane depolarization of CRAB C0 spheroplasts (diSC3-5); type: cell-based, carbapenem-resistant A. baumannii; conditions: 4 μM
Experimental: as §3

E. coli = experiment: MIC, broth dilution; type: cell-based, Escherichia coli KCTC 1682; conditions: Escherichia coli, 16 h, read-out: Minimal Inhibitory Concentration (MIC)
From the text: as §1, §2

P. aeruginosa = experiment: MIC, broth dilution; type: cell-based, Pseudomonas aeruginosa KCCM 11328; conditions: Pseudomonas aeruginosa, 16 h, MH media, read-out: Minimal Inhibitory Concentration (MIC)
From the text: as §1, §2

[2] = system: standard Gram-negative bacteria and carbapenem-resistant Gram-negative bacteria; experiment: Mean MIC over all bacterial strains (GM) and selective index; type: cell-based; conditions: read-out: GM (geometric mean of MIC values of all bacterial strains)
Experimental: as §2

CRAB C0 [3] = experiment: Biofilm assay, crystal violet staining; type: cell-based, carbapenem-resistant A. baumannii; conditions: 16 h
Experimental: Figure 4 Pro9-3 and its analogs have biofilm inhibition properties against CRAB. The antibiofilm activities of peptides (0–32 μM, 16 h) on (A) A. baumannii and (B) CRAB C0 strains were measured by crystal violet staining and the number of attached cells were read at 595 nm. Melittin, meropenem and imipenem were used as a control. Data are shown as the mean ± SEM (n = 3) and are statistically significant at * p < 0.05; *** p < 0.001; ns, not significant (two-way analysis of variance (ANOVA) with Dunnett’s comparison test).
The effects of peptides on biofilm inhibition of A. baumannii and CRAB C0 strains were performed as described previously. […] After treatment, bacterial cells were fixed with methanol (100%, 15 min) followed by crystal violet staining (0.1% (w/v) in 0.25% (v/v) acetic acid for 1 h). The plates were washed with distilled H2O, allowed to dry, and dissolved in ethanol (100% v/v). The color development representing the degree of biofilm was measured at 595 nm.

Compound	MIC (A. baumannii; Acinetobacter baumannii)	MIC (P. aeruginosa)	MIC (CREC E1; Escherichia coli)	MIC (CREC E2; Escherichia coli)	MIC (CRAB C0 [1]; Acinetobacter baumannii)	MIC (CRAB C10; Acinetobacter baumannii)	MIC (CRAB C2; Acinetobacter baumannii)	MIC (CRAB C3; Acinetobacter baumannii)	MIC (CRAB C4; Acinetobacter baumannii)	MIC (CRAB C5; Acinetobacter baumannii)	MIC (CRAB C6; Acinetobacter baumannii)	MIC (CRAB C7; Acinetobacter baumannii)	MIC (CRAB C9; Acinetobacter baumannii)	MIC (CRAB C1)	MIC (CRAB C8)	MIC (K. pneumoniae)	MIC (CRKP K1; Klebsiella pneumoniae)	MIC (CRKP K2; Klebsiella pneumoniae)	MIC [2]	Biofilm inhibition of CRAB C0 (CRAB C0 [3])	further results
polymyxin B [PMB]	–	–	–	–	–	–	–	–	–	–	–	–	–	–	–	–	–	–	–	–	BC displacement (LPS binding) (LPS (E. coli O111:B4)): 76.6%
LL-37	–	–	–	–	–	–	–	–	–	–	–	–	–	–	–	–	–	–	–	–	LPS neutralization (LAL assay) (LPS): 76.5%
CC[C@H](C)[C@H](NC(=O)CN)C(=O)NCC(=O)N[C@@H](C)C(=O)N[C@H](C(=O)N[C@@H](CC(C)C)C(=O)N[C@@H](CCCCN)C(=O)N[C@H](C(=O)N[C@@H](CC(C)C)C(=O)N[C@H](C(=O)N[C@H](C(=O)NCC(=O)N[C@@H](CC(C)C)C(=O)N1CCC[C@H]1C(=O)N[C@@H](C)C(=O)N[C@@H](CC(C)C)C(=O)N[C@H](C(=O)N[C@@H](CO)C(=O)N[C@@H](Cc1c[nH]c2ccccc12)C(=O)N[C@H](C(=O)N[C@@H](CCCCN)C(=O)N[C@@H](CCCNC(=N)N)C(=O)N[C@@H](CCCCN)C(=O)N[C@@H](CCCNC(=N)N)C(=O)N[C@@H](CCC(N)=O)C(=O)N[C@@H](CCC(N)=O)C(N)=O)[C@@H](C)CC)[C@@H](C)CC)[C@@H](C)O)[C@@H](C)O)C(C)C)C(C)C [Melittin, reference compound]	–	–	–	–	–	–	–	–	–	–	–	–	–	–	–	–	–	–	–	–	MIC (A. baumannii): 4 µM (≈ 11.4 µg/mL); MIC (CREC E1): 8 µM (≈ 22.8 µg/mL); MIC (CREC E2): 8 µM (≈ 22.8 µg/mL); MIC (CRAB C0 [1]): 4 µM (≈ 11.4 µg/mL); MIC (CRAB C10): 4 µM (≈ 11.4 µg/mL); MIC (CRAB C2): 4 µM (≈ 11.4 µg/mL); MIC (CRAB C3): 4 µM (≈ 11.4 µg/mL); MIC (CRAB C4): 4 µM (≈ 11.4 µg/mL); MIC (CRAB C5): 4 µM (≈ 11.4 µg/mL); MIC (CRAB C6): 4 µM (≈ 11.4 µg/mL); MIC (CRAB C7): 4 µM (≈ 11.4 µg/mL); MIC (CRAB C9): 4 µM (≈ 11.4 µg/mL); Minimal Inhibitory Concentration (MIC) (CRAB C1; CRAB C1): 4 µM; Minimal Inhibitory Concentration (MIC) (CRAB C8; CRAB C8): 4 µM; Minimal Inhibitory Concentration (MIC) (K. pneumoniae; K. pneumoniae, MH media): 32 µM; MIC (CRKP K1): 64 µM (≈ 182 µg/mL); MIC (CRKP K2): 64 µM (≈ 182 µg/mL); Depolarization of intact CRAB (diSC3-5) (intact CRAB C0): 75.6%; Increase of diSC3-5 fluorescence in CRAB spheroplasts (depolarization) (CRAB C0 spheroplasts): 67.9%
C[C@@H](O)[C@H]1C(=O)N2C(C(=O)O)=C(SCCN=CN)C[C@H]12 [Imipenem, reference compound]	1 µM (≈ 0.299 µg/mL)	1 µM (≈ 0.299 µg/mL)	> 128 µM	16 µM (≈ 4.79 µg/mL)	> 128 µM	> 128 µM	> 128 µM	128 µM (≈ 38.3 µg/mL)	128 µM (≈ 38.3 µg/mL)	128 µM (≈ 38.3 µg/mL)	128 µM (≈ 38.3 µg/mL)	128 µM (≈ 38.3 µg/mL)	> 128 µM	> 128 µM	> 128 µM	< 0.25 µM	32 µM (≈ 9.58 µg/mL)	> 128 µM	90.3 µM (≈ 27 µg/mL)	unable to inhibit	MIC (E. coli): 0.5 µM (≈ 0.15 µg/mL)
C[C@@H](O)[C@H]1C(=O)N2C(C(=O)O)=C(S[C@@H]3CN[C@H](C(=O)N(C)C)C3)[C@H](C)[C@H]12 [Meropenem, reference compound]	0.5 µM (≈ 0.192 µg/mL)	1 µM (≈ 0.383 µg/mL)	> 128 µM	16 µM (≈ 6.14 µg/mL)	128 µM (≈ 49.1 µg/mL)	> 128 µM	128 µM (≈ 49.1 µg/mL)	128 µM (≈ 49.1 µg/mL)	> 128 µM	> 128 µM	> 128 µM	128 µM (≈ 49.1 µg/mL)	> 128 µM	> 128 µM	> 128 µM	< 0.25 µM	64 µM (≈ 24.5 µg/mL)	> 128 µM	91.9 µM (≈ 35.2 µg/mL)	unable to inhibit	MIC (E. coli; E. coli, MH media): 0.25 µM (≈ 0.0959 µg/mL)

Source: article PMC8621208, “Antiseptic 9-Meric Peptide with Potency against Carbapenem-Resistant Acinetobacter baumannii Infection” (International Journal of Molecular Sciences, 2021)
